# Assay results taken from US5583115A, “Dialkyltiacumicin compounds” (Abbott Laboratories, priority 1995, dated 1996).
# What was measured:
# Candida albicans = assay: MIC agar dilution, aerobic and facultative bacteria; conditions: Culture # 3622
# S. epidermidis = assay: as above; conditions: Culture # 1666
# Clostridium perfringens = assay: microbe, parasite or virus in culture; assay type: cell-based
# E. coli = assay: MIC agar dilution, aerobic and facultative bacteria; assay type: cell-based
# B. bivius = assay: MIC agar dilution, anaerobic bacteria; assay type: cell-based; conditions: Culture # 2483
# [1] = system: Peptostreptococcus asaccharolyticus; assay: MIC agar dilution, anaerobic bacteria; assay type: cell-based; conditions: Culture # 1777
# P. cepacia = assay: MIC agar dilution, aerobic and facultative bacteria; conditions: Culture # 1684
# Mycobacterium smegmatis = assay: as above; conditions: Culture # 5171
# Veillonella parvula = assay: MIC agar dilution, anaerobic bacteria; assay type: cell-based; conditions: Culture # 2479
# B. vulgatus = assay: MIC agar dilution, anaerobic bacteria; assay type: cell-based
# Streptococcus bovis = assay: MIC agar dilution, aerobic and facultative bacteria; conditions: Culture # 1699
# Clostridium difficile = assay: In vivo hamster model of pseudomembranous Clostridium difficile induced colitis; conditions: for % Weight change, Day 22 / % Mortality: days 8-14; for % Mortality: expiring by day 20
# Procedure: (Suppression of normal gastrointestinal bacteria by the ciprofloxacin permitted the drug-resistant C. difficile to predominate.) Five additional hamsters were segregated as a noninfected control group.
# The infected animals were divided into three groups comprising (a) 10 untreated animals; (b) 15 vancomycin-treated animals (5 each at 20, 10 and 1 mg/kg/day orally on days 8-14); and (c) 10 animals treated with the compound of Example 2 (5 each at 10 and 1 mg/kg/day on days 8-14). The subject animals were monitored for (a) body weight (infected hamsters lose significant body mass), and (b) mortality (percent expiring by day 20).
# Propionibacterium acnes = assay: MIC agar dilution, anaerobic bacteria; assay type: cell-based; conditions: Culture # 1775
# B. loescheii = assay: MIC agar dilution, anaerobic bacteria; assay type: cell-based; conditions: Culture # 1767
# P. species = assay: MIC agar dilution, anaerobic bacteria; assay type: cell-based; conditions: Culture # 1776
# B. disiens = assay: MIC agar dilution, anaerobic bacteria; assay type: cell-based; conditions: Culture # 1763
# Fusobacterium species = assay: MIC agar dilution, anaerobic bacteria; assay type: cell-based; conditions: Culture # 1770
# P. anaerobius = assay: MIC agar dilution, anaerobic bacteria; assay type: cell-based; conditions: Culture # 1780
# Enterococcus faecium = assay: MIC agar dilution, aerobic and facultative bacteria; conditions: Culture # 1668
# C. ramosum = assay: MIC agar dilution, anaerobic bacteria; assay type: cell-based; conditions: Culture # 2482
# Streptococcus agalactiae = assay: MIC agar dilution, aerobic and facultative bacteria; conditions: Culture # 1670
# S. pyogenes = assay: as above
# Fusobacterium nucleatum = assay: MIC agar dilution, anaerobic bacteria; assay type: cell-based; conditions: Culture # 2478
# Klebsiella pneumoniae = assay: MIC agar dilution, aerobic and facultative bacteria; conditions: Culture # 2518
# P. magnus = assay: MIC agar dilution, anaerobic bacteria; assay type: cell-based; conditions: Culture # 1778
# Bacteriodes fragilis = assay: MIC agar dilution, anaerobic bacteria; assay type: cell-based
# Enterobacter aerogenes = assay: MIC agar dilution, aerobic and facultative bacteria; conditions: Culture # 1677
# C. difficile = assay: MIC agar dilution, anaerobic bacteria; assay type: cell-based
# Micrococcus luteus = assay: MIC agar dilution, aerobic and facultative bacteria
# Staphylococcus aureus = assay: as above
compound,measurement,setting,value
"CCc1c(Cl)c(OC)c(Cl)c(OC)c1C(=O)OC1C(C)OC(OCC2=CC=CCC(O)C(C)=CC(CC)C(OC3OC(C)(C)C(OC(=O)C(C)C)C(O)C3O)C(C)=CC(C)=CCC(C(C)O)OC2=O)C(OC)C1O (stereo not shown) [Example 2, 3""', 5""'-Di-O-methyltiacumicin B]",MIC,Candida albicans,> 100 µg/mL
same,MIC,S. epidermidis,50 µg/mL
same,MIC,Clostridium perfringens; Culture # 1771,0.06 µg/mL
same,MIC,Clostridium perfringens; Culture # 1772,0.06 µg/mL
same,MIC,Clostridium perfringens; Culture # 1773,0.06 µg/mL
same,MIC,"E. coli; DC-2, Culture # 1674",> 100 µg/mL
same,MIC,"E. coli; H560, Culture # 1675",> 100 µg/mL
same,MIC,"E. coli; Juhl, Culture # 1673",> 100 µg/mL
same,MIC,"E. coli; KNK437, Culture # 1676",> 100 µg/mL
same,MIC,"E. coli; SS, Culture # 2489",> 100 µg/mL
same,MIC,B. bivius,> 2 µg/mL
same,MIC,[1],> 2 µg/mL
same,MIC,P. cepacia,> 100 µg/mL
same,MIC,Mycobacterium smegmatis,1.56 µg/mL
same,MIC,Veillonella parvula,> 2 µg/mL
same,MIC,B. vulgatus; Culture # 1762,> 2 µg/mL
same,MIC,B. vulgatus; Culture # 2481,> 2 µg/mL
same,MIC,Streptococcus bovis,> 100 µg/mL
same,body mass,Clostridium difficile; 1 mg/kg,maintained body mass closest to that of non-infected controls
same,"% Weight change, Day 22",Clostridium difficile; 1 mg/kg/day,154%
same,% Mortality,Clostridium difficile; 1 mg/kg/day,20%
same,"% Weight change, Day 22",Clostridium difficile; 10 mg/kg/day,140%
same,% Mortality,Clostridium difficile; 10 mg/kg/day,60%
same,treatment of antibiotic-associated colitis,Clostridium difficile; Table 3,effectively treat an antibiotic-associated colitis
same,survival rate,Clostridium difficile; versus untreated infected controls or vancomycin,higher survival rate than either untreated infected controls or in hamsters treated with vancomycin
same,MIC,Propionibacterium acnes,> 2 µg/mL
same,MIC,B. loescheii,> 2 µg/mL
same,MIC,P. species,> 2 µg/mL
same,MIC,B. disiens,> 2 µg/mL
same,MIC,Fusobacterium species,> 2 µg/mL
same,MIC,P. anaerobius,> 2 µg/mL
same,MIC,Enterococcus faecium,> 100 µg/mL
same,MIC,C. ramosum,> 2 µg/mL
same,MIC,Streptococcus agalactiae,> 100 µg/mL
same,MIC,S. pyogenes; Culture # 1671,> 100 µg/mL
same,MIC,"S. pyogenes; const., Culture # 1672",25 µg/mL
same,MIC,"S. pyogenes; inducible, Culture # 2548",25 µg/mL
same,MIC,Fusobacterium nucleatum,> 2 µg/mL
same,MIC,Klebsiella pneumoniae,> 100 µg/mL
same,MIC,P. magnus,> 2 µg/mL
same,MIC,"Bacteriodes fragilis; Culture # 1756, Wilkins-Chalgren agar, 37° C., 48 hours",> 2 µg/mL
same,MIC,Bacteriodes fragilis; Culture # 1757,> 2 µg/mL
same,MIC,Bacteriodes fragilis; Culture # 1758,> 2 µg/mL
same,MIC,Bacteriodes fragilis; Culture # 1999,> 2 µg/mL
same,MIC,Enterobacter aerogenes,> 100 µg/mL
same,MIC,C. difficile; Culture # 1496,0.25 µg/mL
same,MIC,C. difficile; Culture # 1497,0.5 µg/mL
same,MIC,C. difficile; Culture # 1774,0.25 µg/mL
same,MIC,C. difficile; Culture # 2025,0.5 µg/mL
same,MIC,C. difficile; Culture # 2480,0.25 µg/mL
same,MIC,C. difficile; Culture # 2528,0.5 µg/mL
same,MIC,C. difficile; Culture # 2529,0.5 µg/mL
same,MIC,Micrococcus luteus; Culture # 2493,0.1 µg/mL
same,MIC,Micrococcus luteus; Culture # 2517,0.1 µg/mL
same,MIC,"Staphylococcus aureus; Culture # 1662, brain heart infusion agar, 37° C., 20 hours",100 µg/mL
same,MIC,Staphylococcus aureus; Culture # 1664,50 µg/mL
same,MIC,Staphylococcus aureus; Culture # 1690,100 µg/mL
same,MIC,Staphylococcus aureus; Culture # 2124,> 100 µg/mL
same,MIC,Staphylococcus aureus; Culture # 2130,> 100 µg/mL
same,MIC,Staphylococcus aureus; Culture # 2498,> 100 µg/mL
same,MIC,"Staphylococcus aureus; cipro res., Culture # 3384",100 µg/mL
